Test results as given in patent US20210255193A1, “LYSINE REACTIVE PROBES AND USES THEREOF” (The Scripps Research Institute, priority 2017, published 2021).

Legend:
Test in all cases: competitive isoTOP-ABPP
Format in all cases: binding
[1] = target: T1, LRRC20 Leucine-rich repeat-containing protein 20 (Homo sapiens, UniProt Q8TCA0); settings: 50 uM, 231 sol, in vitro; for R value (DMSO/fragment) for probe 1 labeling: Q8TCA0_K43
T1 construct: isoTOP-ABPP experiments performed in cell lysates (in vitro); endogenous in cells; host or cells: soluble proteome of human cancer cell lines (MDA-MB-231; Ramos and Jurkat also prepared)
T1 sequence (Q8TCA0 1-184): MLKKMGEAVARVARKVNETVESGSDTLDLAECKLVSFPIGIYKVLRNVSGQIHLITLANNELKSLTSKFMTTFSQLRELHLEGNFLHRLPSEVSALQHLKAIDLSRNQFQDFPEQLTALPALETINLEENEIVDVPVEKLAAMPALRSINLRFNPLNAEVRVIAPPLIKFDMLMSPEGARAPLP
Summary of the method: (§1)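 Readout: isotopic light/heavy MS1 peak-area ratio (R, DMSO heavy over compound light), median across peptides sharing a modified lysine. Lysate received fragment (activated esters 50 μM, guanidinylating agents 100 μM final) or DMSO, then 0.1 mM STP-alkyne probe for 1 h at ambient temperature.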

[2] = target: T2, IFIT3 Interferon-induced protein with tetratricopeptide (Homo sapiens, UniProt O14879); settings: 50 uM, 231 sol, in vitro; for R value (DMSO/fragment) for probe 1 labeling: O14879_K148
T2 construct: isoTOP-ABPP experiments performed in cell lysates (in vitro); endogenous in cells; host or cells: MDA-MB-231 soluble lysate
T2 sequence (O14879 1-490): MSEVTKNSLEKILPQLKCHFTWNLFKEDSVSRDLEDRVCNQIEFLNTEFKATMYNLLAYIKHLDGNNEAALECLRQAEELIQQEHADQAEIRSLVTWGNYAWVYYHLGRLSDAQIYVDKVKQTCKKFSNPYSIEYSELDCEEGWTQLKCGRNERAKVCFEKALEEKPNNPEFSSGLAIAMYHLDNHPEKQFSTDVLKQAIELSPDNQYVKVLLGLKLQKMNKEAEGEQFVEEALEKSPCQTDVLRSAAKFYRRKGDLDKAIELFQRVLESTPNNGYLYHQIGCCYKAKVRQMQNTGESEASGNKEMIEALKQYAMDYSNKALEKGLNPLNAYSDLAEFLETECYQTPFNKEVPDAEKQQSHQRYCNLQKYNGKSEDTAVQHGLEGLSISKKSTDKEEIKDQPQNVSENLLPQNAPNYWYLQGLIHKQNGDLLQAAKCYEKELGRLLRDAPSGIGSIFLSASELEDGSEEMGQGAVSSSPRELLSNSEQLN
Summary of the method: as §1

[3] = target: T3, DNMT1 DNA (cytosine-5)-methyltransferase 1 (Homo sapiens, UniProt P26358); settings: 50 uM, 231 sol, in vitro; for R value (DMSO/fragment) for probe 1 labeling: P26358_K45
T3 construct: isoTOP-ABPP experiments performed in cell lysates (in vitro); endogenous in cells; host or cells: soluble proteome of human cancer cell lines (MDA-MB-231; Ramos and Jurkat also prepared)
T3 sequence (P26358 whole entry, the tested form may be a part): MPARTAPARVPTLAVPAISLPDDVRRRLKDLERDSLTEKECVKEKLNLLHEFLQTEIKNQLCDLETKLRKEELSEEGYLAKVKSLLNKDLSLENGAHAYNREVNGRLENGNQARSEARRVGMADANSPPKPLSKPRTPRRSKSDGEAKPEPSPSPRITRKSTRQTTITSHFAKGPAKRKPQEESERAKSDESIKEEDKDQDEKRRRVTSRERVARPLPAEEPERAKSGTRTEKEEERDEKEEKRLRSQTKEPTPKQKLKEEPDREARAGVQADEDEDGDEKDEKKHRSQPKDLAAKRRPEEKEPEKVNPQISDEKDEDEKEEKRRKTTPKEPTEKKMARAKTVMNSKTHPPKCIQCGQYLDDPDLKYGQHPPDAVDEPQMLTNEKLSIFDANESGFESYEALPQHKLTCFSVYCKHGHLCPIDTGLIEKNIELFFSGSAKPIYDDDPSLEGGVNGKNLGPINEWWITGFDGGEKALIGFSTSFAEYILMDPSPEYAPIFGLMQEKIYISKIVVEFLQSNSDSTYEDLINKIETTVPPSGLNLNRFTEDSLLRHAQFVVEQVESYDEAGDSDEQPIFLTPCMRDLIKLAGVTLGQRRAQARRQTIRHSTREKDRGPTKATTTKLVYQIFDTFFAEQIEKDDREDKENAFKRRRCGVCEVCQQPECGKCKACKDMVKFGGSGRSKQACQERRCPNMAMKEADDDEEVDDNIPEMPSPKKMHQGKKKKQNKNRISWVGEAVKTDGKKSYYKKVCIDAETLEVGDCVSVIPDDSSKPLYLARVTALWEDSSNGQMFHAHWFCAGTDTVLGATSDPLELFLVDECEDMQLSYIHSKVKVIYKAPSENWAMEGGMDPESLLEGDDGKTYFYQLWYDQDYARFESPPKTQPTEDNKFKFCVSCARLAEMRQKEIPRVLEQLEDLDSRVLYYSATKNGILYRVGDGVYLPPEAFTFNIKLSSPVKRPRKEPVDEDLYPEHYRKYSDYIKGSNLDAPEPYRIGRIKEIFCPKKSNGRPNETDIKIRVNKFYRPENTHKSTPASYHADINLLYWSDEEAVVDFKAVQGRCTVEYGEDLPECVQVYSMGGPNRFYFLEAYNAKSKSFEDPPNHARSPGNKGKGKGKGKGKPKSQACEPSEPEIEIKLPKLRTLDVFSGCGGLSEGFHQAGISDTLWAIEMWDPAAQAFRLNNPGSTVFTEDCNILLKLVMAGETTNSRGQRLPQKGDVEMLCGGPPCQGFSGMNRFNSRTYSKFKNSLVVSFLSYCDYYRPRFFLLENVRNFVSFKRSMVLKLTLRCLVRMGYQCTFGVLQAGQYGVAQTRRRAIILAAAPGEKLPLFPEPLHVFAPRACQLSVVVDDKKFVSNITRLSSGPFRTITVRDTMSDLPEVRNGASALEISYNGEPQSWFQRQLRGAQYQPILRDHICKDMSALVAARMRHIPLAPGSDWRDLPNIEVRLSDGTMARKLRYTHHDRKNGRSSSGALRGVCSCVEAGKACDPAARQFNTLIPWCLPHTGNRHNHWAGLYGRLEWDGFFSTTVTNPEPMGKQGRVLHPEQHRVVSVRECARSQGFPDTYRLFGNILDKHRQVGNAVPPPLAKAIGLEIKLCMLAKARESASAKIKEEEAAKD
Summary of the method: as §1

TTR Transthyretin = target: T4, TTR Transthyretin (Homo sapiens, UniProt P02766); settings: for R value (DMSO/fragment) for probe 1 labeling: P02766_K35
T4 construct: isoTOP-ABPP experiments performed in cell lysates (in vitro); endogenous in cells; host or cells: MDA-MB-231 soluble lysate
Summary of the method: as §1

[4] = target: T5, EEF1G Elongation factor 1-gamma (Homo sapiens, UniProt P26641); settings: 50 uM, 231 sol, in vitro; for R value (DMSO/fragment) for probe 1 labeling: P26641_K227
T5 construct: isoTOP-ABPP experiments performed in cell lysates (in vitro); endogenous in cells; host or cells: soluble proteome of human cancer cell lines (MDA-MB-231; Ramos and Jurkat also prepared)
T5 sequence (P26641 whole entry, the tested form may be a part): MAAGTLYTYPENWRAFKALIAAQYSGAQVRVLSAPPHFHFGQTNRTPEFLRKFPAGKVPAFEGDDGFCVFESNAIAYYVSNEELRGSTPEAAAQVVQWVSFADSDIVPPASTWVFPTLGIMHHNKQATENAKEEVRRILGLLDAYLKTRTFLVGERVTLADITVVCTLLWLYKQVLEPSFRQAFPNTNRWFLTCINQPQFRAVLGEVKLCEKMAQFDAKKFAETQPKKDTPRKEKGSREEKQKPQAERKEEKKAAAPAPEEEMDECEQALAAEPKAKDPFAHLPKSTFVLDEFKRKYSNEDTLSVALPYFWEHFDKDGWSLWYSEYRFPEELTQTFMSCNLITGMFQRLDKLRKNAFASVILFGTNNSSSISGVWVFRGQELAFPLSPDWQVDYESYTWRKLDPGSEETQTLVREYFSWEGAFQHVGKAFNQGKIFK
Summary of the method: as §1

| Compound | R value (DMSO/fragment) for probe 1 labeling [1] | R value (DMSO/fragment) for probe 1 labeling (TTR Transthyretin; 50 uM, 231 sol, in vitro) | isoTOP-ABPP reactivity ratio at lysine P26641_K227 [4] | isoTOP-ABPP reactivity ratio at lysine O14879_K148 [2] | further results |
| --- | --- | --- | --- | --- | --- |
| O=C(Oc1c(F)c(F)c(F)c(F)c1F)C(c1ccccc1)c1ccccc1 [fragment 20, Pentafluorophenyl 2,2-diphenylacetate] | 0.7 | 1.4 |  |  | R value (DMSO/fragment) for probe 1 labeling [3]: 7.3; R value (DMSO/fragment) for probe 1 labeling [4]: 0.9; R value (DMSO/fragment) for probe 1 labeling [2]: 0.7 |
| Cn1cc(CC(=O)Oc2c(F)c(F)c(F)c(F)c2F)c2ccccc21 [fragment 22, Pentafluorophenyl 2-(1-methyl-1H-indol-3-yl)acetate] | 0.9 | 2.6 |  |  | R value (DMSO/fragment) for probe 1 labeling [3]: 0.9 |
| COc1cc(CCC(=O)Oc2c(F)c(F)c(F)c(F)c2F)cc(OC)c1OC [fragment 23, Pentafluorophenyl 3-(3,4,5-trimethoxyphenyl)propanoate] |  | 1.0 |  |  |  |
| O=C(Oc1c(F)c(F)c(F)c(F)c1F)C1CCN(C(=O)OCc2ccccc2)CC1 [fragment 24, 1-Benzyl 4-(pentafluorophenyl) piperidine-1,4-dicarboxylate] |  |  | 0.9 | 1.3 |  |
| O=C(Oc1c(F)c(F)c(F)c(F)c1F)c1ccc2ccccc2n1 [fragment 25, Pentafluorophenyl quinoline-2-carboxylate] |  |  | 1.1 | 1.9 | isoTOP-ABPP reactivity ratio at lysine P26358_K45 [3]: 0.9 |
| O=C(Oc1ccc([N+](=O)[O-])cc1[N+](=O)[O-])c1cc(C(F)(F)F)cc(C(F)(F)F)c1 [fragment 31, 2,4-Dinitrophenyl 3,5-bis(trifluoromethyl)benzoate] |  |  | 2.2 |  | isoTOP-ABPP reactivity ratio at lysine P02766_K35 (TTR Transthyretin; 50 uM, 231 sol, in vitro): 16.1; targeting of K35 (TTR Transthyretin; TTR K35): preferentially targeted |

The next lines start with results.

| R value (DMSO/fragment) for probe 1 labeling [1] | R value (DMSO/fragment) for probe 1 labeling (TTR Transthyretin; 50 uM, 231 sol, in vitro) | isoTOP-ABPP reactivity ratio at lysine P26641_K227 [4] | isoTOP-ABPP reactivity ratio at lysine O14879_K148 [2] | Compound | further results |
| --- | --- | --- | --- | --- | --- |
| 1.1 |  |  |  | O=C(CCc1cn(-c2ccccc2)nc1-c1ccccc1)Oc1c(F)c(F)c(F)c(F)c1F [fragment 19, Pentafluorophenyl 3-(1,3-diphenyl-1H-pyrazol-4-yl)propanoate] | R value (DMSO/fragment) for probe 1 labeling [2]: 0.9 |
| 1.0 | 2.6 |  |  | O=C(Oc1c(F)c(F)c(F)c(F)c1F)c1cc(C(F)(F)F)cc(C(F)(F)F)c1 [fragment 21, Pentafluorophenyl 3,5-bis(trifluoromethyl)benzoate] | R value (DMSO/fragment) for probe 1 labeling [3]: 1.4; R value (DMSO/fragment) for probe 1 labeling [4]: 0.8; R value (DMSO/fragment) for probe 1 labeling [2]: 1.4 |
|  |  | 0.8 | 1.4 | O=C(CCc1coc2cc(F)ccc2c1=O)Oc1c(F)c(F)c(F)c(F)c1F [fragment 26, Pentafluorophenyl 3-(7-fluoro-4-oxo-4H-chromen-3-yl)propanoate] | isoTOP-ABPP reactivity ratio at lysine Q8TCA0_K43 [1]: 0.8 |
|  |  | 1.2 | 0.9 | O=C(CN1C(=O)c2ccccc2C1=O)Oc1c(F)c(F)c(F)c(F)c1F [fragment 27, Pentafluorophenyl 2-(1,3-dioxoisoindolin-2-yl)acetate] |  |
|  |  | 15.0 | 1.0 | CCn1cc(C(=O)Oc2c(F)c(F)c(F)c(F)c2F)c(=O)c2ccc(C)nc21 [fragment 28, Pentafluorophenyl 1-ethyl-7-methyl-4-oxo-1,4-dihydro-1,8-naphthyridine-3-carboxylate] |  |
